# Source: article PMC5218480 (PLoS ONE, 2017)
# System: MV-4-11 cells
# Assay: Gene expression microarray analysis (Affymetrix PrimeView) and GSEA
# Format: cell-based, human
# Set-up: RFU PODN (11730768_x_at) / Fold change /veh PODN (11730768_x_at) / RFU LINC00158 (11744669_a_at) / Fold change /veh LINC00158 (11744669_a_at) / RFU DUSP10 (11751237_a_at) / Fold change /veh DUSP10 (11751237_a_at) / RFU ID3 (11757404_x_at) / Fold change /veh ID3 (11757404_x_at) / RFU PLEKHG5 (11737974_s_at) / Fold change /veh PLEKHG5 (11737974_s_at) / RFU LRRC4B (11730491_at) / Fold change /veh LRRC4B (11730491_at) / RFU GIMAP4 (11747438_a_at) / Fold change /veh GIMAP4 (11747438_a_at) / RFU KRT8 (11758183_x_at) / Fold change /veh KRT8 (11758183_x_at) / RFU CNN1 (11734310_a_at) / Fold change /veh CNN1 (11734310_a_at) / RFU VPS37D (11726825_at) / Fold change /veh VPS37D (11726825_at) / RFU C10orf10 (11716522_x_at) / Fold change /veh C10orf10 (11716522_x_at) / RFU KIR2DL2 /// KIR2DL4 /// KIR2DL5A /// KIR2DL5B /// KIR2DS1 /// KIR2DS2 /// KIR2DS3 /// KIR2DS4 /// KIR3DL3 /// KIR3DL3 /// KIR3DS1 (11738374_at) / Fold change /veh KIR2DL2 /// KIR2DL4 /// KIR2DL5A /// KIR2DL5B /// KIR2DS1 /// KIR2DS2 /// KIR2DS3 /// KIR2DS4 /// KIR3DL3 /// KIR3DL3 /// KIR3DS1 (11738374_at) / RFU C1QL1 (11718748_at) / Fold change /veh C1QL1 (11718748_at) / RFU TMPRSS4 (11747572_a_at) / Fold change /veh TMPRSS4 (11747572_a_at) / RFU HAMP (11756126_x_at) / Fold change /veh HAMP (11756126_x_at) / RFU RNFT2 (11725882_a_at) / Fold change /veh RNFT2 (11725882_a_at) / RFU NR4A2 (11747474_a_at) / Fold change /veh NR4A2 (11747474_a_at) / RFU ABCC12 (11746883_a_at) / Fold change /veh ABCC12 (11746883_a_at) / RFU TMEM136 (11760407_x_at) / Fold change /veh TMEM136 (11760407_x_at) / RFU CLDN22 /// WWC2 (11732394_at) / Fold change /veh CLDN22 /// WWC2 (11732394_at) / RFU HLA-DPB1 (11760878_x_at) / Fold change /veh HLA-DPB1 (11760878_x_at) / RFU SPINT1 (11716480_a_at) / Fold change /veh SPINT1 (11716480_a_at) / RFU GAP43 (11754022_s_at) / Fold change /veh GAP43 (11754022_s_at) / RFU A4GNT (11735810_at) / Fold change /veh A4GNT (11735810_at) / RFU PRB3 (11715151_x_at) / Fold change /veh PRB3 (11715151_x_at) / RFU TUBB4B (11761932_at) / Fold change /veh TUBB4B (11761932_at) / RFU CAPN14 (11732068_a_at) / Fold change /veh CAPN14 (11732068_a_at) / RFU TMCC2 (11721928_a_at) / Fold change /veh TMCC2 (11721928_a_at) / RFU IRGQ (11745062_a_at) / Fold change /veh IRGQ (11745062_a_at) / RFU FAM174B (11720279_a_at) / Fold change /veh FAM174B (11720279_a_at) / RFU TMPRSS4 (11748680_a_at) / Fold change /veh TMPRSS4 (11748680_a_at) / RFU FAM212B (11763350_a_at) / Fold change /veh FAM212B (11763350_a_at) / RFU PLEKHG5 (11743358_a_at) / Fold change /veh PLEKHG5 (11743358_a_at) / RFU ZSCAN30 (11745921_a_at) / Fold change /veh ZSCAN30 (11745921_a_at) / RFU CMKLR1 (11741424_a_at) / Fold change /veh CMKLR1 (11741424_a_at) / RFU LOC101060620 /// MAPK8IP1 (11723275_at) / Fold change /veh LOC101060620 /// MAPK8IP1 (11723275_at) / RFU SPTSSB (11747773_x_at) / Fold change /veh SPTSSB (11747773_x_at) / RFU PRSS12 (11739890_at) / Fold change /veh PRSS12 (11739890_at) / RFU BIN1 (11741810_x_at) / Fold change /veh BIN1 (11741810_x_at) / RFU WNT11 (11732464_a_at) / Fold change /veh WNT11 (11732464_a_at) / RFU C10orf10 (11716521_a_at) / Fold change /veh C10orf10 (11716521_a_at) / RFU C5orf56 (11738089_at) / Fold change /veh C5orf56 (11738089_at) / RFU CYB561 (11721691_x_at) / Fold change /veh CYB561 (11721691_x_at) / RFU ANKRD19P (11752326_a_at) / Fold change /veh ANKRD19P (11752326_a_at) / RFU OR2T12 /// OR2T33 /// OR2T8 (11738714_s_at) / Fold change /veh OR2T12 /// OR2T33 /// OR2T8 (11738714_s_at) / RFU VCAN (11748164_a_at) / Fold change /veh VCAN (11748164_a_at) / RFU JSRP1 (11732532_at) / Fold change /veh JSRP1 (11732532_at) / RFU KRTAP10-11 (11738290_x_at) / Fold change /veh KRTAP10-11 (11738290_x_at) / RFU MYO3A (11730013_a_at) / Fold change /veh MYO3A (11730013_a_at) / RFU EBF3 (11725865_a_at) / Fold change /veh EBF3 (11725865_a_at) / RFU CAMK2N1 (11719241_x_at) / Fold change /veh CAMK2N1 (11719241_x_at) / RFU C5orf56 (11738088_a_at) / Fold change /veh C5orf56 (11738088_a_at) / RFU OLFML3 (11715873_a_at) / Fold change /veh OLFML3 (11715873_a_at) / RFU LOC100653217 /// NTM (11731650_a_at) / Fold change /veh LOC100653217 /// NTM (11731650_a_at) / RFU MAPK11 (11762145_a_at) / Fold change /veh MAPK11 (11762145_a_at) / RFU FIZ1 (11724087_x_at) / Fold change /veh FIZ1 (11724087_x_at) / RFU OASL (11726364_x_at) / Fold change /veh OASL (11726364_x_at) / RFU SOX15 (11748057_x_at) / Fold change /veh SOX15 (11748057_x_at) / RFU CD79A (11719716_a_at) / Fold change /veh CD79A (11719716_a_at) / RFU HIST1H1D (11736915_at) / Fold change /veh HIST1H1D (11736915_at) / RFU CASKIN2 (11723855_a_at) / Fold change /veh CASKIN2 (11723855_a_at) / RFU LOC730098 (11760151_x_at) / Fold change /veh LOC730098 (11760151_x_at) / RFU OR4N2 (11742367_at) / Fold change /veh OR4N2 (11742367_at) / RFU PRRT2 (11749266_a_at) / Fold change /veh PRRT2 (11749266_a_at) / RFU SNX32 (11753110_a_at) / Fold change /veh SNX32 (11753110_a_at) / RFU CDHR5 (11726645_a_at) / Fold change /veh CDHR5 (11726645_a_at) / RFU RCAN1 (11760418_a_at) / Fold change /veh RCAN1 (11760418_a_at) / RFU FAM167A (11723789_a_at) / Fold change /veh FAM167A (11723789_a_at) / RFU FAM26E (11764081_at) / Fold change /veh FAM26E (11764081_at) / RFU ISYNA1 (11749810_s_at) / Fold change /veh ISYNA1 (11749810_s_at) / RFU ACY1 (11761880_at) / Fold change /veh ACY1 (11761880_at) / RFU 11764098_at / Fold change /veh 11764098_at / RFU SAMD14 (11745864_x_at) / Fold change /veh SAMD14 (11745864_x_at) / RFU NPB (11741838_a_at) / Fold change /veh NPB (11741838_a_at) / RFU TMPRSS6 (11731388_a_at) / Fold change /veh TMPRSS6 (11731388_a_at) / RFU KRTAP10-2 (11738614_at) / Fold change /veh KRTAP10-2 (11738614_at) / RFU ARHGAP8 /// PRR5-ARHGAP8 (11727945_x_at) / Fold change /veh ARHGAP8 /// PRR5-ARHGAP8 (11727945_x_at) / RFU KRTAP5-7 /// NADSYN1 (11734609_at) / Fold change /veh KRTAP5-7 /// NADSYN1 (11734609_at) / RFU RASL12 (11751679_a_at) / Fold change /veh RASL12 (11751679_a_at) / RFU CDKN2B (11736163_a_at) / Fold change /veh CDKN2B (11736163_a_at) / RFU PRF1 (11729649_at) / Fold change /veh PRF1 (11729649_at) / RFU, ZNF638 /// ZNF638-IT1 / Fold change vs veh, ZNF638 /// ZNF638-IT1 / RFU, PANK3 / Fold change vs veh, PANK3 / RFU, SH3YL1 / Fold change vs veh, SH3YL1 / RFU, ZEB2 / Fold change vs veh, ZEB2 / RFU, NRIP1 / Fold change vs veh, NRIP1 / RFU, PTTG1IP / Fold change vs veh, PTTG1IP / RFU, CAPN2 / Fold change vs veh, CAPN2 / RFU, MED14 / Fold change vs veh, MED14 / RFU, SNORA58 / Fold change vs veh, SNORA58 / RFU, C1orf63 / Fold change vs veh, C1orf63 / RFU, LRRFIP1 / Fold change vs veh, LRRFIP1 / RFU, NDUFAF7 / Fold change vs veh, NDUFAF7 / RFU, SLC12A2 / Fold change vs veh, SLC12A2 / RFU, IBTK / Fold change vs veh, IBTK / RFU, ESF1 / Fold change vs veh, ESF1 / Fold change vs veh, TMEM50B / RFU, TAOK1 / Fold change vs veh, TAOK1 / RFU, ACBD3 / Fold change vs veh, ACBD3 / RFU, TMA16 / Fold change vs veh, TMA16 / RFU, RWDD3 / Fold change vs veh, RWDD3 / RFU, BCAT1 / Fold change vs veh, BCAT1 / RFU, EDEM3 / Fold change vs veh, EDEM3 / RFU, TMEM33 / Fold change vs veh, TMEM33 / RFU, WDR75 / Fold change vs veh, WDR75 / RFU, AHCTF1 / Fold change vs veh, AHCTF1 / RFU, TFRC / Fold change vs veh, TFRC / RFU, ZDHHC17 / Fold change vs veh, ZDHHC17 / RFU, NOM1 / Fold change vs veh, NOM1 / RFU, ARL8B / Fold change vs veh, ARL8B / RFU, ZBTB11 / Fold change vs veh, ZBTB11 / RFU, TAMM41 / Fold change vs veh, TAMM41 / RFU, KIAA1704 /// LOC100996395 / Fold change vs veh, KIAA1704 /// LOC100996395 / RFU, ING1 / Fold change vs veh, ING1 / RFU, TRMT61B / Fold change vs veh, TRMT61B / RFU, FUBP3 / Fold change vs veh, FUBP3 / RFU, TP53 / Fold change vs veh, TP53 / RFU, TNKS2 / Fold change vs veh, TNKS2 / RFU, ZFP14 / Fold change vs veh, ZFP14 / RFU, ACTR2 / Fold change vs veh, ACTR2 / RFU, PPP3R1 / Fold change vs veh, PPP3R1 / RFU, PIK3R1 / Fold change vs veh, PIK3R1 / RFU, HNRNPA1 / Fold change vs veh, HNRNPA1 / RFU, RNF170 / Fold change vs veh, RNF170 / RFU, ZNF28 / Fold change vs veh, ZNF28 / RFU, RNGTT / Fold change vs veh, RNGTT / RFU, OGT / Fold change vs veh, OGT / RFU, BRD1 / Fold change vs veh, BRD1 / RFU, MARS / Fold change vs veh, MARS / RFU, ZNF655 / Fold change vs veh, ZNF655 / RFU, FAHD1 / Fold change vs veh, FAHD1 / RFU, BDP1 / Fold change vs veh, BDP1 / RFU, LRRCC1 / Fold change vs veh, LRRCC1 / RFU, ARID1A / Fold change vs veh, ARID1A / RFU, ZNF146 / Fold change vs veh, ZNF146 / RFU, ZNF330 / Fold change vs veh, ZNF330 / RFU, GPN3 / Fold change vs veh, GPN3 / RFU, C9orf123 / Fold change vs veh, C9orf123 / RFU, N4BP2L2 / Fold change vs veh, N4BP2L2 / RFU, ARFIP1 / Fold change vs veh, ARFIP1 / RFU, FAM179B / Fold change vs veh, FAM179B / RFU, BCL10 / Fold change vs veh, BCL10 / RFU, UHRF1BP1L / Fold change vs veh, UHRF1BP1L / RFU, BET1 / Fold change vs veh, BET1 / RFU, CNOT2 / Fold change vs veh, CNOT2 / RFU, ZNF268 / Fold change vs veh, ZNF268 / Fold change vs veh, ZNF507 / RFU, DGCR2 / Fold change vs veh, DGCR2 / RFU, WDSUB1 / Fold change vs veh, WDSUB1 / Fold change vs veh, HSP90B1 /// MIR3652 / RFU, ADSS / Fold change vs veh, ADSS / RFU, GK / Fold change vs veh, GK / RFU, ZNF148 / Fold change vs veh, ZNF148 / RFU, TAF9 / Fold change vs veh, TAF9 / RFU, SLC1A5 / Fold change vs veh, SLC1A5 / RFU, SLMO2 / Fold change vs veh, SLMO2 / RFU, ABCC4 / Fold change vs veh, ABCC4 / RFU, LOC101060439 /// RAP1B / Fold change vs veh, LOC101060439 /// RAP1B / RFU, RFX7 / Fold change vs veh, RFX7 / RFU, GTPBP10 / Fold change vs veh, GTPBP10 / RFU, CNEP1R1 / Fold change vs veh, CNEP1R1 / RFU, BIVM-ERCC5 /// ERCC5 / Fold change vs veh, BIVM-ERCC5 /// ERCC5 / RFU, ILF3 / Fold change vs veh, ILF3 / RFU 11762660_at / Fold change /veh 11762660_at / RFU VCAN (11757783_s_at) / Fold change /veh VCAN (11757783_s_at) / RFU DDX43 (11728927_at) / Fold change /veh DDX43 (11728927_at) / RFU KRT8 (11758188_x_at) / Fold change /veh KRT8 (11758188_x_at) / RFU NKD1 (11759106_at) / Fold change /veh NKD1 (11759106_at) / RFU SRD5A1 (11742802_a_at) / Fold change /veh SRD5A1 (11742802_a_at) / RFU TPSAB1 /// TPSB2 (11721975_s_at) / Fold change /veh TPSAB1 /// TPSB2 (11721975_s_at) / RFU GSTM3 (11746129_a_at) / Fold change /veh GSTM3 (11746129_a_at) / RFU IL23R (11737362_x_at) / Fold change /veh IL23R (11737362_x_at) / RFU TMEM51 (11727254_a_at) / Fold change /veh TMEM51 (11727254_a_at) / RFU PIWIL2 (11732686_x_at) / Fold change /veh PIWIL2 (11732686_x_at) / RFU ORM1 (11744905_x_at) / Fold change /veh ORM1 (11744905_x_at) / RFU CCDC152 (11743942_at) / Fold change /veh CCDC152 (11743942_at) / RFU ECM1 (11717891_a_at) / Fold change /veh ECM1 (11717891_a_at) / RFU IL23R (11748794_a_at) / Fold change /veh IL23R (11748794_a_at) / RFU TNFAIP8L3 (11732012_x_at) / Fold change /veh TNFAIP8L3 (11732012_x_at) / RFU MBOAT4 (11741988_at) / Fold change /veh MBOAT4 (11741988_at) / RFU 11764193_at / Fold change /veh 11764193_at / RFU TMEM53 (11763286_at) / Fold change /veh TMEM53 (11763286_at) / RFU MAGEB2 (11727129_at) / Fold change /veh MAGEB2 (11727129_at) / RFU TMEM200A (11744735_a_at) / Fold change /veh TMEM200A (11744735_a_at) / RFU CCDC152 (11751479_a_at) / Fold change /veh CCDC152 (11751479_a_at) / RFU FAM211A (11726209_a_at) / Fold change /veh FAM211A (11726209_a_at) / RFU RGS16 (11746705_a_at) / Fold change /veh RGS16 (11746705_a_at) / RFU VCAN (11755009_s_at) / Fold change /veh VCAN (11755009_s_at) / RFU RHOB (11743442_s_at) / Fold change /veh RHOB (11743442_s_at) / RFU RGS16 (11720943_a_at) / Fold change /veh RGS16 (11720943_a_at) / RFU RGS16 (11720944_at) / Fold change /veh RGS16 (11720944_at) / RFU, VPS4B / Fold change vs veh, VPS4B / RFU, CREB1 / Fold change vs veh, CREB1 / RFU, DNAJC13 / Fold change vs veh, DNAJC13 / RFU, GNAQ / Fold change vs veh, GNAQ / RFU, CDK5R1 / Fold change vs veh, CDK5R1 / RFU, ZRANB3 / Fold change vs veh, ZRANB3 / RFU, CUL4A / Fold change vs veh, CUL4A / RFU, CCNY / Fold change vs veh, CCNY / RFU, UFL1 / Fold change vs veh, UFL1 / RFU, COG3 / Fold change vs veh, COG3 / RFU, DIAPH2 / Fold change vs veh, DIAPH2 / RFU, SKA2 / Fold change vs veh, SKA2 / RFU, AFF3 / Fold change vs veh, AFF3 / RFU, LMF1 / Fold change vs veh, LMF1 / RFU, IPO11 / Fold change vs veh, IPO11 / RFU, DFFB / Fold change vs veh, DFFB / RFU, FOXP1 / Fold change vs veh, FOXP1 / RFU, CARD8 / Fold change vs veh, CARD8 / RFU, STRN3 / Fold change vs veh, STRN3 / RFU, ADK / Fold change vs veh, ADK / RFU, RASSF2 / Fold change vs veh, RASSF2 / RFU, WIPF1 / Fold change vs veh, WIPF1 / RFU, LARP1B / Fold change vs veh, LARP1B / RFU, RASA1 / Fold change vs veh, RASA1 / RFU, RB1 / Fold change vs veh, RB1 / RFU, PPFIA1 / Fold change vs veh, PPFIA1 / RFU, MAT2A / Fold change vs veh, MAT2A / RFU, CCT5 / Fold change vs veh, CCT5 / RFU, WDR92 / Fold change vs veh, WDR92 / RFU, CUX1 / Fold change vs veh, CUX1 / RFU, TTC7A / Fold change vs veh, TTC7A / RFU, TMEM135 / Fold change vs veh, TMEM135 / RFU, DEPTOR / Fold change vs veh, DEPTOR / RFU, CPM / Fold change vs veh, CPM / RFU, DNAJB6 / Fold change vs veh, DNAJB6 / RFU, CACNA2D3 / Fold change vs veh, CACNA2D3 / RFU, DTX4 / Fold change vs veh, DTX4 / RFU, TFCP2 / Fold change vs veh, TFCP2 / RFU, GMCL1 /// GMCL1P1 / Fold change vs veh, GMCL1 /// GMCL1P1 / RFU, AEBP2 / Fold change vs veh, AEBP2 / RFU, SNHG1 /// SNORD22 /// SNORD25 /// SNORD26 /// SNORD27 /// SNORD28 /// SNORD29 /// SNORD31 / Fold change vs veh, SNHG1 /// SNORD22 /// SNORD25 /// SNORD26 /// SNORD27 /// SNORD28 /// SNORD29 /// SNORD31 / Fold change (Aza/veh), C12orf56 (ProbeSet 11735607_a_at) / Fold change (ACY-1035/veh), C12orf56 (ProbeSet 11735607_a_at) / Fold change (Aza/veh), FGFR1OP (ProbeSet 11751329_s_at) / Fold change (ACY-1035/veh), FGFR1OP (ProbeSet 11751329_s_at) / Fold change (Aza/veh), VPS36 (ProbeSet 11739960_a_at) / Fold change (ACY-1035/veh), VPS36 (ProbeSet 11739960_a_at) / RFU SYPL1 (11715823_x_at) / Fold change /veh SYPL1 (11715823_x_at) / RFU IGFBP7 (11715501_s_at) / Fold change /veh IGFBP7 (11715501_s_at) / RFU REEP3 (11722064_at) / Fold change /veh REEP3 (11722064_at) / RFU IGLL1 (11728026_x_at) / Fold change /veh IGLL1 (11728026_x_at): dose or concentration left out as unconfirmed
# Settings: MV-4-11 cells, 48 hours
smiles,measurement,value
Nc1ncn([C@@H]2O[C@H](CO)[C@@H](O)[C@H]2O)c(=O)n1 [azacitidine],Fold change /veh GSTM3 (11746129_a_at),1.35
